# Literature values as cited in patent publication US6375990B1, “Method and devices for transdermal delivery of lithium” (Emory University, priority 1997, dated 2002).
# How the values were obtained:
# [1] = patients who do not respond to antidepressant monotherapy
# [2] = not given; remark: listed apart in the source
smiles,measurement,setting,value
"[Li+] [Li^+, Lithium]",plasma concentration associated with life-threatening intoxication,plasma,exceeding 3.5 mEq/L
same,serum concentration above which adverse effects increase greatly,serum,exceed 1.5 mEq/L
same,antidepressant non-responders converted to responders,[1],approximately 50 % of patients
same,final volume of distribution (Vd),[2]; approximates total body water,0.7 to 0.9 L/kg
same,time to maximal plasma Li+ concentration (Tmax),"[2]; immediate release formulations, following an oral dose",1 to 4 h
same,binding to blood proteins,[2]; in vivo,does not bind to blood proteins
same,biotransformation / metabolic conversion,[2]; in vivo,not biotransformed
same,"elimination through sweat, saliva, and feces",[2]; in vivo,less than 5 % of an oral dose
same,excretion through the kidneys,[2]; in vivo,> 90%
same,filtered load reabsorbed in the renal proximal tubules,[2]; in vivo,Eighty
same,half-life,[2]; in vivo,18 to 36 h
same,absorption from the gastrointestinal tract,[2]; oral administration,readily and nearly completely absorbed
